Patent US7541367B2, “3-benzoimidazolyl-pyrazolopyridines useful in treating kinase disorders” (Janssen Pharmaceutica, N.V., priority 2005, dated 2009)
pIC50: −log10 of the molar value.

What was measured:
Lyn kinase = target: T1, Lyn kinase (Homo sapiens, UniProt P07948); test: Lyn Kinase Assay; format: biochemical; settings: 5 μM ATP
T1 construct: purchased Upstate Biotechnology, Lake Placid, N.Y
Method in brief: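 Recombinant human Lyn kinase in pH 7.5 Tris buffer with EGTA, vanadate, β-mercaptoethanol and BSA reacted with compound for 40 min at 30° C. The radiolabelled product was captured on P30 filtermats after phosphoric acid stop and counted by scintillation. IC50 came from percent inhibition versus log concentration, using plate maximum/minimum signals.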

A375 malignant melanoma = test: Cell Proliferation Inhibition Assay (14C-thymidine incorporation), A375; format: cell-based; settings: Homo sapiens, A-375, A375 cells;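 note: proliferation measured by radiolabelled thymidine uptake into new DNA, counted in scintillating 96-well plates, compound-treated wells compared with DMSO-only control wells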
HCT-116 colon carcinoma = test: Cell Proliferation Inhibition Assay (14C-thymidine incorporation), HCT-116; format: cell-based; settings: Homo sapiens, HCT-116, HCT-116 cells;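 note: proliferation measured as methyl 14C-thymidine uptake into new DNA, counted in 96-well scintillating microplates, compared with DMSO-only control wells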
[1] = tested on: Human melanoma A375 cells; test: In Vivo Models - Inhibition of Tumor Growth (A375 xenograft); settings: female athymic mice, 25 mg/kg i.p. daily
Method: The ability of test compounds to inhibit unregulated growth of human tumor cells in vivo was evaluated by implanting human tumor cells into the hindflank of athymic mice, administering a test compound and then quantifying any change in tumor size.
Certain compounds at particular doses produced adverse effects in this model. One skilled in the art would be able to establish the effective amount of compound required to achieve an effective therapeutic window.
Human melanoma A375 cells were implanted subcutaneously into the hindflank of female athymic mice (Charles River) and allowed to grow for 6-10 days. After a measurable tumor was established (as determined by baseline caliper measurement), the animal was administered an intraperitoneal (i.p.) dose of the test compound daily at 25 mg/kg for the length of the study. Tumor size was measured at certain intervals as shown in Table 5 and the degree of inhibition for a test compound was determined by comparing the reduction in tumor volume for drug-treated animals to that of untreated and vehicle-treated animals. The vehicle used was 20% hydroxypropyl β-cyclodextran.

[2] = tested on: HeLa cervical adenocarcinoma; test: Cell Proliferation Inhibition Assay (14C-thymidine incorporation), HeLa; format: cell-based; settings: Homo sapiens, HeLa, HeLa cells;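 note: test compound in DMSO added to cells seeded in scintillating 96-well plates, DMSO-only wells as control, uptake of methyl 14C-thymidine into new DNA counted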

T1 sequence (P07948 whole entry): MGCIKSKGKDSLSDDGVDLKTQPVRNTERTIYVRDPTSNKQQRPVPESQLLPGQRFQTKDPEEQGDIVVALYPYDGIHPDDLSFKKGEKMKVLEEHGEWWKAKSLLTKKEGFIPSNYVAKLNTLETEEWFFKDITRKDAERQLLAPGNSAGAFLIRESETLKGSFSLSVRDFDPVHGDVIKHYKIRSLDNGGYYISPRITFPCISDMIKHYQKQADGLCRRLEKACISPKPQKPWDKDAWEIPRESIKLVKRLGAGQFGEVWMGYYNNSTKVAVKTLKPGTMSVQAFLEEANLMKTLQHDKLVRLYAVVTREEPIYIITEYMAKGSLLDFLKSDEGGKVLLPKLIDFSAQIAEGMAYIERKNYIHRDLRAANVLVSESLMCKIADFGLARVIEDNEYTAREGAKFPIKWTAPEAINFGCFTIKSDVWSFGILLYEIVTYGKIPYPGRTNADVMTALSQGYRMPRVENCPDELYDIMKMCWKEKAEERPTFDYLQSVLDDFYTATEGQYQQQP

## CNCc1cncc(-c2cnc3[nH]nc(-c4nc5cc(OC(F)(F)F)ccc5[nH]4)c3c2)c1 [Cpd 96, methyl-{5-[3-(5-trifluoromethoxy-1H-benzoimidazol-2-yl)-1H-pyrazolo[3,4-b]pyridin-5-yl]-pyridin-3-ylmethyl}-amine]
Lyn kinase
  pIC50: 8.08
A375 malignant melanoma
  pIC50: 7.33
HCT-116 colon carcinoma
  pIC50: 7.26
[1]; Day 1
  Tumor volume: 95.4 mm^3
[1]; Day 4
  Tumor volume: 68.3 mm^3

## CCNCc1cncc(-c2cnc3[nH]nc(-c4nc5cc(OC)ccc5[nH]4)c3c2)c1 [Cpd 101, ethyl-{5-[3-(5-methoxy-1H-benzoimidazol-2-yl)-1H-pyrazolo[3,4-b]pyridin-5-yl]-pyridin-3-ylmethyl}-amine]
Lyn kinase
  pIC50: 8.60
[2]
  pIC50: 7.47
A375 malignant melanoma
  pIC50: 7.00
HCT-116 colon carcinoma
  pIC50: 7.31
[1]; Day 1
  Tumor volume: 95.4 mm^3
[1]; Day 4
  Tumor volume: 128 mm^3
[1]; Day 8
  Tumor volume: 354.1 mm^3
[1]; Day 11
  Tumor volume: 632.3 mm^3
[1]; Day 14
  Tumor volume: 988.7 mm^3
